Data on six molecules can be found in ChEMBL document CHEMBL4482321, “Compounds and methods for treatment of cancer by inhibiting atg4b and blocking autophagy” (2017).

Active and inactive are the calls of the source. No cut-off for these calls is given here.

Data set [1] has as its target T1, Cysteine protease ATG4B (Homo sapiens) (UniProt Q9Y4P1).
T1 sequence (whole entry): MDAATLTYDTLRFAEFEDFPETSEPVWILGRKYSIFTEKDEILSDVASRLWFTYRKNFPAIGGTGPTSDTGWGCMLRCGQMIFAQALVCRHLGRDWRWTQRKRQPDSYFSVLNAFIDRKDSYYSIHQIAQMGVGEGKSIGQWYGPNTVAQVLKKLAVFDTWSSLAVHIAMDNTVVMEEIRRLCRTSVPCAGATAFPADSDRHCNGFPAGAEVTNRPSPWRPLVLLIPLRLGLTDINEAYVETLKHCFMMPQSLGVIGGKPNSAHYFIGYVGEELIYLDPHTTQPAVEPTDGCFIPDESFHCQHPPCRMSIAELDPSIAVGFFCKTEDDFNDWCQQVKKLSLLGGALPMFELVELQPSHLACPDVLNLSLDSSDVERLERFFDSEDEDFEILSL
Nature of the data set: Inhibition of ATG4B (unknown origin) at 1.6 uM incubated up to 1 hr in presence of fluorescent protein substrate by FRET-based-LC3 cleavage assay relative to control.

Data set [2] deals with T1, Cysteine protease ATG4B (Homo sapiens). In words: Inhibition of ATG4B (unknown origin) at 100 uM incubated up to 1 hr in presence of fluorescent protein substrate by FRET-based-LC3 cleavage assay relative to control.
A short description of data set [3]: Cytotoxicity against human SUM149PT-R75 cells assessed as induction of cell killing incubated for 72 hrs by crystal violet staining based assay. The format is functional.
Data set [4] is filed under the species Homo sapiens. Nature of the data set: Cytotoxicity against human CD34+ CML cells obtained from IM-nonresponding patient assessed as reduction in colony forming cells at 10 uM in presence of 150 nM DA incubated for 12 to 14 days. The format is functional, cell-based.
Data set [5] has as its system K562. In words: Synergistic induction of apoptosis in human K562 cells assessed as reduction in cell viability at 5 to 10 uM in presence of 0.5 uM imatinib incubated for 72 hrs by Annexin V-APC and propidium iodide staining based flow cytometry relative to compound alone. The format is functional. On the technique in general: In flow cytometry, cells or beads pass a laser one at a time.

Another data set concerns the target T2, Cysteine protease ATG4B (Homo sapiens, UniProt Q9Y4P1).
T2 sequence (Q9Y4P1 whole entry): T1 sequence (whole entry)
Nature of the data set: Inhibition of ATG4B (unknown origin) incubated up to 1 hr in presence of fluorescent protein substrate by FRET-based-LC3 cleavage assay.

The species named for data set [6] is Homo sapiens. In words: Cytotoxicity against human CD34+ CML cells obtained from IM-nonresponding patient assessed as reduction in colony forming cells at 10 uM in presence of 5 imatinib incubated for 12 to 14 days. The class given is functional, cell-based.
The subject of data set [7] is K562. In words: Synergistic cytotoxicity against human K562 cells assessed as reduction in cell viability at 5 to 10 uM in presence of 0.5 uM imatinib incubated for 72 hrs by trypan blue staining based assay relative to compound alone. The format is functional.
The next data set has as its system BV-173. Nature of the data set: Cytotoxicity against human BV173 cells assessed as reduction in colony forming cells at 5 to 10 uM in presence of 0.25 to 0.5 uM imatinib incubated for 2 weeks. The format is functional, cell-based.
Data set [8] relates to MDA-MB-231. In words: Inhibition of autophagic flux in wortmannin-treated human MDA-MB-231 cells assessed as increase in p62 levels at 50 uM by Western blot analysis. The format is functional, cell-based. In general terms: Immunoblotting shows a protein as a band on a membrane.
The subject of data set [9] is MDA-MB-231. In words: Cytotoxicity against human MDA-MB-231 cells assessed as induction of cell killing incubated for 72 hrs by crystal violet staining based assay. The class given is functional. The following applies: MDA-MB-231, 72 h.
In data set [10] the test system is MDA-MB-231. In words: Inhibition of autophagic flux in bafilomycin A-treated human MDA-MB-231 cells assessed as increase in LC3B-II levels at 50 uM by Western blot analysis. The class given is functional, cell-based.
The subject of a further data set is Bone marrow cell. Nature of the data set: Cytotoxicity against human CD34+ normal bone marrow cells […] assessed as reduction in colony forming cells up to 10 uM incubated for 12 to 14 days. The class given is cell-based.
Data set [11] concerns MDA-MB-231. Nature of the data set: Inhibition of autophagic flux in wortmannin-treated human MDA-MB-231 cells assessed as increase in LC3B-II levels at 50 uM by Western blot analysis. The class given is functional, cell-based.
Data set [12] concerns MDA-MB-231. In words: Inhibition of autophagic flux in bafilomycin A-treated human MDA-MB-231 cells assessed as increase in p62 levels at 50 uM by Western blot analysis. The format is functional, cell-based.
Data set [13] can be described thus: Cytotoxicity against human MDA-MB-231-R8 cells assessed as induction of cell killing incubated for 72 hrs by crystal violet staining based assay. The format is functional.
The test system of another data set is SUM149PT. In words: Cytotoxicity against human SUM149PT cells assessed as induction of cell killing incubated for 72 hrs by crystal violet staining based assay. The format is functional.

Consider `O=C(O)CCC(NC(=O)Nc1ncc([N+](=O)[O-])s1)C(=O)O` (stereo not drawn), for which the inhibition – broadly, the relative decrease from the control value, in per cent – in [1] was found to be 10%; in [2], 27%.
`O=C(NCc1ccccc1)Nc1ncc([N+](=O)[O-])s1`: the IC50 – broadly, the midpoint of a concentration-inhibition curve – is 24.5 to 34.1 µM in data set [3]; 1700 nM at Cysteine protease ATG4B; 42.9 to 59.1 µM with MDA-MB-231 [9]; 23.3 to 30.8 µM in [13]; 25.6 to 33.2 µM in the data set with SUM149PT. In addition, the outcome in the data set listed under Homo sapiens [4], in the data set on K562 [5], in the data set listed under Homo sapiens [6], in the data set on K562 [7], in the data set on BV-173 and in the data set with MDA-MB-231 [8] was Active. Besides, the outcome in the data set on MDA-MB-231 [10], with MDA-MB-231 [11] and in the data set on MDA-MB-231 [12] was Active. Also, the Activity entry in the data set on Bone marrow cell is listed as “Non-Toxic”.
For `COc1ccc(CNC(=O)Nc2ncc([N+](=O)[O-])s2)cc1`, the IC50 is 26 to 35.1 µM in [3]; 1600 nM on Cysteine protease ATG4B; 17.6 to 23.4 µM in the data set with MDA-MB-231 [9]; 5.92 to 9.09 µM in data set [13]; 15.2 to 22.6 µM in the data set with SUM149PT.
Take `O=C(Nc1ccccn1)Nc1ncc([N+](=O)[O-])s1`: the results for the inhibition in data set [1] and in data set [2] were 0% and 3%, respectively.
The corresponding values for `O=C(Nc1ccccc1)Nc1ncc([N+](=O)[O-])s1` are 17% and 21%.
The corresponding values for `O=C(Nc1ncc([N+](=O)[O-])s1)NC(Cc1ccccc1)C(=O)O` (stereo not drawn) are 0% and 17%.
